{
  "source": "ChEMBL document CHEMBL5537151",
  "about": "“Design, synthesis and bioactivity evaluation of novel fusion peptides and their CPT conjugates inducing effective anti-tumor responses on HER2 positive tumors” (Eur J Med Chem, 2024)",
  "key": {"SK-BR-3 [1]": {"system": "SK-BR-3", "test": "Induction of apoptosis in human SK-BR-3 cells assessed as live cells at 1 uM incubated for 24 hrs by Annexin V-FITC/PI staining based flow cytometry analysis (reference value: 94.6%)", "format": "functional"}, "SK-BR-3 [2]": {"system": "SK-BR-3", "test": "Induction of apoptosis in human SK-BR-3 cells assessed as necrotic cells at 1 uM incubated for 24 hrs by Annexin V-FITC/PI staining based flow cytometry analysis (reference value: 1.49%)", "format": "functional"}, "SK-BR-3 [3]": {"system": "SK-BR-3", "test": "Induction of apoptosis in human SK-BR-3 cells assessed as downregulation of XIAP protein expression at 2.5 to 5 uM incubated for 24 hrs by Western blot analysis", "format": "functional, cell-based", "conditions": "dose 2.5-5 µM"}, "SK-BR-3 [4]": {"system": "SK-BR-3", "test": "Induction of apoptosis in human SK-BR-3 cells assessed as downregulation of XIAP protein expression at 2.5 uM by Western blot analysis", "format": "functional, cell-based", "conditions": "time 24-48 hrs, TDE = time-dependent effect"}, "SK-BR-3 [5]": {"system": "SK-BR-3", "test": "Induction of apoptosis in human SK-BR-3 cells assessed as downregulation of cIAP1 protein expression at 2.5 uM by Western blot analysis", "format": "functional, cell-based", "conditions": "time 24-48 hrs, TDE = time-dependent effect"}, "SK-BR-3 [6]": {"system": "SK-BR-3", "test": "Induction of apoptosis in human SK-BR-3 cells assessed as caspase-3 activation by measuring increase in green fluorescence incubated for 24 hrs by GreenNuc substrate/Hoechst 33342 staining based fluorescence microscopic analysis", "format": "functional, cell-based"}, "SK-BR-3 [7]": {"system": "SK-BR-3", "test": "Induction of apoptosis in human SK-BR-3 cells assessed as increase in ROS level by flow cytometry analysis", "format": "functional, cell-based"}, "[8]": {"test": "Drug localization in lysosome of human SK-BR-3 cells assessed as increase in red fluorescence of lysosomal dye at 10 uM incubated for 6 hrs by FITC/Lysotracker red dye based laser confocal microscopic analysis", "format": "ADME, subcellular", "conditions": "sk-br-3, 6 h"}, "[9]": {"test": "Toxicity in nude mouse xenografted with human SK-BR-3 cells assessed as change in creatinine level at 8 umol/kg, iv administered every 3 days for 14 days", "format": "organism-based", "conditions": "in vivo, 336 h, dose 8 µmol/kg, time 14 day"}, "[10]": {"test": "Toxicity in nude mouse xenografted with human SK-BR-3 cells assessed as cell necrosis in liver at 8 umol/kg, iv administered every 3 days for 14 days by H and E staining based analysis", "format": "organism-based", "conditions": "in vivo, 336 h, dose 8 µmol/kg, time 14 day"}, "[11]": {"test": "Toxicity in nude mouse xenografted with human SK-BR-3 cells assessed as inflammatory cell infiltration in spleen at 8 umol/kg, iv administered every 3 days for 14 days by H and E staining based analysis", "format": "organism-based", "conditions": "in vivo, 336 h, dose 8 µmol/kg, time 14 day"}, "NCI-N87": {"system": "NCI-N87", "test": "cells", "conditions": "Homo sapiens, NCI-N87, 48 h", "description": "Cytotoxicity against HER-positive human NCI-N87 cells incubated for 48 hrs by CCK-8 assay"}},
  "note": "pIC50: −log10 of the molar value. Calls of active or inactive are those of the source. The rule behind the calls is not given here. Peptide text beside a SMILES is read from it. * marks the point of attachment. X1 = CCC1(C(=O)OCCS*)C(=O)OCc2c1cc1n(c2=O)Cc2cc3ccccc3nc2-1",
  "data": [
    {"smiles": "CC[C@H](C)[C@H](NC(=O)[C@@H]1CCCN1C(=O)[C@@H](NC(=O)[C@H](C)N)C(C)C)C(=O)N[C@@H](C)C(=O)N[C@@H](CCC(N)=O)C(=O)N[C@@H](CCCCN)C(=O)N[C@@H](CSSCCOC(=O)C1(CC)C(=O)OCc2c1cc1n(c2=O)Cc2cc3ccccc3nc2-1)C(=O)NCC(=O)N[C@@H](Cc1ccccc1)C(=O)N[C@@H](CC(C)C)C(=O)NCC(=O)N[C@@H](CC(N)=O)C(=O)N1CCC[C@H]1C(=O)N[C@@H](CC(N)=O)C(=O)N[C@@H](Cc1c[nH]c2ccccc12)C(=O)NCC(=O)N[C@@H](CCCNC(=N)N)C(=O)N[C@@H](CO)C(=O)N[C@@H](Cc1c[nH]c2ccccc12)C(=O)N[C@@H](Cc1ccc(O)cc1)C(=O)N[C@@H](CC(N)=O)C(=O)N[C@@H](CCC(N)=O)C(=O)N[C@@H](CCCNC(=N)N)C(=O)N[C@@H](Cc1ccccc1)C(=O)N[C@@H](CCCCN)C(N)=O", "note": "(some centres not stated) (H-AVPIAQKC(X1)GFLGNPNWGRSWYNQRFK-NH2)", "values": [
      {"measurement": "Activity", "setting": "SK-BR-3 [1]", "value": 61.1, "unit": "%"},
      {"measurement": "Activity", "setting": "SK-BR-3 [2]", "value": 3.42, "unit": "%"},
      {"measurement": "Activity", "setting": "SK-BR-3 [3]", "value": "Active"},
      {"measurement": "Activity", "setting": "SK-BR-3 [4]", "value": "Tde"},
      {"measurement": "Activity", "setting": "SK-BR-3 [5]", "value": "Tde"},
      {"measurement": "Activity", "setting": "SK-BR-3 [6]", "value": "Active"},
      {"measurement": "Activity", "setting": "SK-BR-3 [7]", "value": "Active"},
      {"measurement": "Drug uptake", "setting": "[8]", "value": "Active"},
      {"measurement": "Activity", "setting": "[9]", "value": "Non-Toxic"},
      {"measurement": "Activity", "setting": "[10]", "value": "Non-Toxic"},
      {"measurement": "Activity", "setting": "[11]", "value": "Non-Toxic"},
      {"measurement": "pIC50", "setting": "NCI-N87", "value": 5.80}
    ]}
  ]
}
